The values below come from publication PMC4944145, “New paradigms for understanding and step changes in treating active and chronic, persistent apicomplexan infections” (Scientific Reports, 2016).

In data set [1] the test system is P. falciparum Dd2 parasite lines. The experiment in a line: P. falciparum whole-cell SYBR Green EC50, Dd2 and cytochrome b mutant / scDHODH lines. Type of data set: cell-based. The note with it: Plasmodium falciparum. As for the experimental part:
We used the following parasite line from the MR4 repository of the American Type Culture Collection (ATCC): Dd2 (MRA-156). Mutant Dd2 parasites harboring a G33A or G33V substitution in cytochrome b were as reported^S77. Dd2 parasites with a G131S mutation in cytochrome b and transgenic lines expressing a chromosomally integrated copy of the S. cerevisiae DHODH were utilized as previously described^S78. Parasites were cultured by standard methods in RPMI media supplemented with 5% human O^+ serum and 0.25% AlbuMAX® II (Life Technologies 11021–045)^S79.
Drug susceptibility was measured using the SYBR Green method^S75. Twelve point curves based on 2-fold dilutions of the test compound were carried out in triplicate each day and replicated on at least three different days. EC50 values were calculated using a nonlinear regression curve fit in Prism 6.0 for Mac (GraphPad Software, Inc.).

Data set [2] relates to P. falciparum Dd2 parasites. The experiment in a line: Isobologram, modified fixed ratio drug combinations. The note with it: for interaction in combination with MJM170: Dd2 parasites, synergy combined FIC < 1.0, additivity FIC = 1.0, antagonism FIC > 1.0; for FIC ATV: MJM170 + ATV; for FIC CYG: MJM170 + CYG. Type of data set: cell-based, Plasmodium falciparum. As for the experimental part: Isobologram experiments were performed in similar fashion utilizing the modified fixed ratio methodology^S76. […] EC50 values were calculated as above, and FICs were calculated for each drug combination as described^S76. Synergy was defined as an FIC < 1.0, additivity as FIC = 1.0, and antagonism as FIC > 1.0.

Another data set relates to T. gondii cysts. The note with it: cited from earlier work.
Data set [3] is described as follows: Aqueous kinetic solubility PBS pH 7.4.
Data set [4] relates to S. cerevisiae wild type parental AD1-9 strain. Kind of data set: S. cerevisiae growth inhibition (disk), wild type. The data set is classed as cell-based, Saccharomyces cerevisiae. The note with it: glycerol medium, 1mM, 100, 5 and 1 μM. As for the experimental part:
Three S. cerevisiae strains were used: M221Q and M221F cytochrome b mutants and wild type. They share the same nuclear genetic background deriving from AD1–9 (kindly given by M.Ghislain, UCL, Belgium). AD1–9 harbors multiple deletions in the ABC transporter genes that render the strain more sensitive to drugs than standard yeast strains^S65.
Protocol from^S68: Yeast strains were grown over 48 hours at 33 °C in liquid YPG medium [1% yeast extract, 2%(wt/vol) peptone, and 3%(vol/vol) (glycerol). Cultures were diluted to an OD600 of 0.05 and grown for 2 hrs. Cultures were then combined with YPG containing 6% melted agar for a total volume of 15–20 mL and poured onto OmniTray single-well rectangular plates that measured 86 mm by 128 mm (ThermoScientific) . Filter paper disks (7 mm diameter, […]) were placed onto the cooled agar plates. […] A single disk with DMSO on each plate was used as a control. Plates were incubated at 33 °C. Images were obtained after 4 days using GelDoc XR Imaging System (BioRad) and Quantity One software. Drug effect was assessed by the presence and size of a zone of inhibition around the disks.

The subject of another data set is P. falciparum. The experiment in a line: P. falciparum in vitro assay (D6, TM91C235, W2, C2B strains). The data set is classed as cell-based. The note with it: Plasmodium falciparum. As for the experimental part:
D6 is a drug sensitive strain from Sierra Leone, C235 is a multi-drug resistant strain from Thailand, W2 is a chloroquine resistant strain from Thailand, and C2B has resistance to a variety of drugs including atovaquone. These assays were performed as described^S74.

For data set [5], the system named is yeast with a mutation in the Qi site. The note with it: cited from earlier work.
The test system of data set [6] is T. gondii tachyzoites (RH-YFP strain). The experiment in a line: T. gondii tachyzoite assay (RH-YFP in HFF, fluorescence). Type of data set: cell-based. The note with it: Toxoplasma gondii. As for the experimental part: (§1) Vivo-PMO (Vivo porter linked to morpholinos) to knock down cytochrome b and an off-target PPMO (Vivo porter) were utilized at concentrations of 5 and 10 μM as previously described with both cultures of RH-YFP tachyzoites and EGS^S14. Morpholino sequence for cytochrome b/c knockdown is 5′ […] 3′, and for unrelated sequence, off target, is 5′ […]-[…] 3′.
Human foreskin fibroblasts (HFF) were cultured on a flat, clear-bottomed, black 96-well plate to 90% to 100% confluence. IMDM (1x, [+] glutamine, [+] 25 mM HEPES, [+] Phenol red, 10% FBS [gibco, Denmark]) was removed from each well and replaced with IMDM-C(1x, [+] glutamine, [+] 25 mM HEPES, [−] Phenol red, 10% FBS)[Gibco, Denmark]). Type I RH parasites expressing Yellow Fluorescent Protein (RH-YFP) were lysed from host cells by double passage through a 27-gauge needle. Parasites were counted and diluted to 32,000/mL in IMDM-C. Fibroblast cultures were infected with 3200 tachyzoites of the Type I RH-YFP strain and returned to incubator at 37 °C for 1–2 hours to allow for infection ^S12–15;S18,19;S25. […] The plates were read using a fluorimeter (Synergy H4 Hybrid Reader, BioTek) To ascertain the amount of yellow fluorescent protein, in relative fluorescence units (RFU), as a measure of parasite burden after treatment. […] Data was collected using Gen5 software and analyzed with Excel.

For data set [7], the system named is T. gondii bradyzoites (EGS strain). The experiment in a line: EGS strain bradyzoite (cyst) assay in HFF. Type of data set: cell-based, Toxoplasma gondii. As for the experimental part:
as §1
HFF cells were grown in IMDM (1x, [+] glutamine, [+] 25 mM HEPES, [+] Phenol red, 10% FBS, [Gibco, Denmark]) on removable, sterile glass disks in the bottom of a clear, flat-bottomed 24-well plate. Cultures were infected with 3 × 10^4 parasites (EGS strain) per well, in 0.5 mL media and plate was returned to incubator at 37 °C overnight. The following day, the media was removed and clear IMDM and compounds were added to making various concentrations of the drug, to a total volume of 0.5 mL. Two wells were filled with media only, as a control. Plates were returned to the 37 °C incubator for 72 hours.
Efficacy was determined following fixation. Staining was used to determine the numbers of cysts in cultures without and with treatment with the test compounds. Cells were fixed using 4% paraformaldehyde and stained with Fluorescein-labeled Dolichos Biflorus Agglutinin, DAPI, and anti-BAG1, and anti-SAG1. Disks were removed and mounted onto glass slides and visualized using microscopy (Nikon Tl7). Slides were also scanned using a CRi Pannoramic Scan Whole Slide Scanner and viewed using Pannoramic Viewer Software.

Data set [8] in a line: HFF toxicity assay (WST-1). Type of data set: cell-based. The note with it: human, HFF cells (confluent monolayer). As for the experimental part: Toxicity assays were conducted using WST-1 cell proliferation reagent (Roche) as described^S12–15;S18,19. HFF were grown on a flat, clear-bottomed, black 96-well plate. Confluent HFF were treated with inhibitory compounds at concentrations equal to those being tested in challenge assays. Compounds were diluted in IMDM-C, and 20 μl were added to each designated well, with triplicates for each condition. A gradient of 2 fold-decreasing concentrations of DMSO in clear IMDM-C was used as a control. The plate was incubated for 72 hours at 37 °C. 10 μl of WST-1 reagent (Roche) were added to each well and the cells were incubated for 30 to 60 minutes. Absorbance was read using a fluorometer at 420 nm. A higher degree of color change (and absorbance) indicated mitochondrial activity and cell viability.

Data set [9] can be described thus: Mouse microsomal stability.
Data set [10] in a line: Human microsomal stability.

In brackets after ≈: the same amount, converted by molar mass. Entries after “also recorded” stand apart in the source; their conditions may differ. Where two headings read alike, the source gives them in different places.

As usually defined, the EC50 is the concentration that produces a half-maximal response. Broadly, the kinetic solubility is the concentration staying in solution when a stock, usually in DMSO, is diluted into the medium. As usually defined, the IC50 is the point on the concentration scale where inhibition reaches its midpoint. One may read the solubility as the dissolved amount per volume that the medium holds. Usually CC50 stands for the concentration at which the toxic effect on the cells reaches its halfway point. A high value points to lower toxicity to the cells. Broadly, the half-life is how long it takes for the measured level to halve.

Regarding `C[C@H]1[C@H](OC(=O)CCC(=O)O)O[C@@H]2O[C@@]3(C)CC[C@H]4[C@H](C)CC[C@@H]1[C@@]24OO3` [Artesunate], the EC50 in data set [1] (DD2, Dd2) turned out to be 2.95 ± 0.94 nM; in [1] (DD2, Dd2-attB), 4.4 ± 2.3 nM; in [1] (DD2, Dd2-scDHODH), 3.97 ± 2.3 nM; in data set [1] (DD2, Dd2: G33A) it was 2.53 ± 0.69 nM; in data set [1] (DD2, Dd2: G33V), 2.08 ± 1.4 nM; in data set [1] (DD2, Dd2: G131S) it was 3.38 ± 0.48 nM.
With `O=C1C(O)=C([C@H]2CC[C@H](c3ccc(Cl)cc3)CC2)C(=O)c2ccccc21` [Atovaquone, atovaquone], the EC50 is 0.461 ± 0.14 nM in [1] (DD2, Dd2); 1.11 ± 0.27 nM in [1] (DD2, Dd2-attB); above 50 nM in data set [1] (DD2, Dd2-scDHODH); 0.365 ± 0.053 nM in data set [1] (DD2, Dd2: G33A); 3.85 ± 7.1 nM in data set [1] (DD2, Dd2: G33V); 0.479 ± 0.17 nM in data set [1] (DD2, Dd2: G131S). The entries for the “interaction in combination with MJM170” value in data set [2] and in data set [2] (listed as atovoquone) were “Slight synergy; also recorded: modest synergy” and “modestly synergistic”, respectively. In addition, the “FIC ATV” value in data set [2] (ratio 2:8) was 0.82 ± 0.05; in data set [2] (ratio 4:6), 0.72 ± 0.1; in data set [2] (ratio 6:4), 0.52 ± 0.1; in [2] (ratio 8:2), 0.35 ± 0.06. In addition, the “effect on cyst burden in mice” value with T. gondii cysts is “partially, and transiently, limits cyst burden in mice”.
Regarding `Cc1[nH]c2ccccc2c(=O)c1-c1ccc(Oc2ccc(OC(F)(F)F)cc2)cc1` [ELQ 271], in [3], the kinetic solubility was determined as 0.15 µM (≈ 0.0617 µg/mL). Also, the “growth inhibition of wild type yeast” value in [4] is given as “effective”. Besides, the IC50 in the data set with P. falciparum (C2B strain, multi-drug resistant, pronounced resistance to atovaquone) was 130 nM; in the data set on P. falciparum (D6 strain (Sierra Leone), drug sensitive) it was 30 nM; in the data set on P. falciparum (TM91C235 strain (Thailand), multi-drug resistant), 90 nM; in the data set with P. falciparum (W2 strain (Thailand), chloroquine resistant), 100 nM; in [6], 30 nM; in [7] (Toxoplasma gondii, EGS strain cysts in HFF), 1000 nM. Besides, the “activity against yeast with a mutation in the Qi site” value in data set [5] is on record as “ineffective”. The solubility in the data set “FaSSIF solubility pH 6.5” is 3.4 µM (≈ 1.4 µg/mL). The “effect on EGS bradyzoites in cysts in vitro” value in [7] is “inhibited EGS in vitro”. Further, the “effect on EGS cysts in vitro” value in [7] (10 μM) is “reduce the EGS cysts in vitro”. Further, the “effect on brain cyst numbers in mice” value in the data set with T. gondii cysts (mouse model, listed as ELQ271) is on record as “partially reduce cyst numbers in mice”; with T. gondii cysts (mouse model; listed as ELQ) 271), “reduce, but not eliminate, brain cyst numbers in mice”. Further, the CC50 at 72 h in data set [8] amounted to 20000 nM. This compound yielded a mouse microsomal stability in data set [9] above 200 min. In addition, the half-life in data set [9] (mouse, mouse microsomes) is above 3.33 h; in data set [10] (human, human microsomes), 2.87 h. The same compound showed a human microsomal stability in data set [10] (rounded) of 172 min.
For `CC1(C)N=C(N)N=C(N)N1c1ccc(Cl)cc1` [cycloguanil], the “interaction in combination with MJM170” value in data set [2] was “additive effect”. Besides, the “FIC CYG” value in data set [2] (ratio 2:8) is reported as 0.036 ± 0.01; in [2] (ratio 4:6) it was 0.089 ± 0.03; in [2] (ratio 6:4), 0.2 ± 0.05; in data set [2] (ratio 8:2) it was 0.41 ± 0.003.
